Data as given in patent publication US20220073874A1, “METHODS FOR ENHANCING DIRECT REPROGRAMMING OF CELLS” (UNIVERSITY OF SOUTHERN CALIFORNIA, priority 2020, published 2022).

What was measured:
[1] = tested on: mouse embryonic fibroblasts (MEFs); format: cell-based; settings: 6FDD condition, 14 dpi (FIG. 9G)
[2] = tested on: mouse embryonic fibroblasts (MEFs); assay: biotinylated-trimethylpsoralen (bTMP) immunofluorescence, negative DNA supercoiling; format: cell-based; settings: 100 μM for 15 minutes (FIG. 12A-B)
Experimental: Biotinylated-trimethylpsoralen (bTMP) Immunofluorescence. One day after addition of N3 media (and without addition of glial cultures), cells were treated with 1 μM aphidicolin for 1.5-2 hours in N3 media. For control experiments, MEFs were treated with or without 100 μM bleomycin prior to incubation with psoralen. Then cells were incubated with 0.3 mg/mL EZ-Link Psoralen-PEG3-Biotin (Thermo Cat. No: 29986) for 15 minutes. Cultures were then exposed to 3 kJ m-2 of […] light (Fotodyne UV Transilluminator 3-3000 with 15W bulbs) for 15 minutes at room temperature in the dark followed by 3 washes in PBS. Then cells were fixed with cold 70% ethanol for 30 minutes at 4° C. followed by another 3 washes in PBS. Cells were then incubated with Alexa Fluor 594 Streptavidin (Thermo Cat. No: 532356) for one hour at room temperature in the dark, washed with PBS 3 times, and then stained with Hoescht (1:1000) for 10 minutes at room temperature in the dark. Coverslips were mounted onto glass slides using lmmuMount and imaged using the Zeiss LSM 800 confocal microscope.

[3] = tested on: mouse embryonic fibroblasts (MEFs); assay: EU incorporation (transcription rate) by flow cytometry; format: cell-based; settings: Control-Pure and 6FDDRR cells, 4 dpi (FIG. 2L)
[4] = tested on: mouse embryonic fibroblasts (MEFs); assay: viable cells by FSC and SSC profile via FACS; settings: 6FDDRR, 4 dpi (FIG. 9L)
[5] = tested on: mouse embryonic fibroblasts (MEFs); assay: EdU incorporation (DNA synthesis, S phase) by flow cytometry

With `CO[C@@]12[C@H](COC(N)=O)C3=C(C(=O)C(C)=C(N)C3=O)N1C[C@@H]1N[C@@H]12` [mitomycin C] the iMN conversion [1] was “impaired”.
With bleomycin the “biotinylated TMP intercalation” value [2] was “decreased”.
`C[C@@]1(CO)[C@H](O)CC[C@@]2(C)[C@H]1CC[C@H]1C[C@@H]3C[C@@]12CC[C@]3(O)CO` [Aphidicolin, aphidicolin] was tested, and the transcription rates [3] was “increased”, the “cell count (total viable cells)” value [4] was “only slightly reducing” and the “percent of cells in S phase” value ([5]; EdU incorporation at 4 dpi, 1 μM for 18 hours, 6FDDRR (FIG. 9J-K)) was “dramatically reduced”. The EdU incorporation ([5]; uninfected MEFs, 10 μM for 2 hr (FIG. 12N)) was “did not incorporate EdU”.
